T/C data for six compounds are collected here from PubChem BioAssay AID330 (DTP/NCI, 2004).

The assay has as its system P388 leukemia ip, CD2F1 mice, survival T/C. Kind of assay: NCI In Vivo Anticancer Drug Screen. Data for tumor model P388 Leukemia (intraperitoneal) in CD2F1 (CDF1) mice. Particulars: endpoint: median survival time, higher = longer survival. Summed up:
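Mice carrying the transplanted tumor received test compound or vehicle. Survival was recorded in each group, and the value is the treated-group measurement divided by that of the vehicle-treated control group.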

Structures are written as SMILES. “And” between values parts separate entries of the source, which are not always exact repeats. Identical values can stand only once. Toxic doses and inconclusive results are not listed.

In the case of `O=S1(=O)N2CN3CN(C2)CN1C3`, the T/C is, setting by setting: (dose: 6.25 mg/kg/injection, schedule: Q04DX003 (ip), vehicle: Klucel (hydroxypropylcellulose) (HPC)) 106 % of control; (dose: 12.5 mg/kg/injection, schedule: Q04DX003 (ip), vehicle: Klucel (hydroxypropylcellulose) (HPC)) 104 % of control; (dose: 25.0 mg/kg/injection, schedule: Q04DX003 (ip), vehicle: Klucel (hydroxypropylcellulose) (HPC)) 111 % of control; (dose: 50.0 mg/kg/injection, schedule: Q04DX003 (ip), vehicle: Klucel (hydroxypropylcellulose) (HPC)) 106 % of control.

Turning to `CSCSCC(CO)NC(=O)/C=C/c1c(C)[nH]c(=O)[nH]c1=O` (stereo not given), the T/C is 105 % of control (dose: 0.08 mg/kg/injection, schedule: Q01DX009 (ip), vehicle: water); 107 % of control (dose: 0.15 mg/kg/injection, schedule: Q01DX009 (ip), vehicle: water); 102 % of control (dose: 0.3 mg/kg/injection, schedule: Q01DX009 (ip), vehicle: water); 101 % of control (dose: 0.6 mg/kg/injection, schedule: Q01DX009 (ip), vehicle: water); 109 % of control (dose: 1.2 mg/kg/injection, schedule: Q01DX009 (ip), vehicle: water); 87 % of control (dose: 50.0 mg/kg/injection, schedule: Q01DX009 (ip), vehicle: other). The T/C (dose: 100.0 mg/kg/injection, schedule: Q01DX009 (ip), vehicle: other) was 98 % of control; the T/C (dose: 200.0 mg/kg/injection, schedule: Q01DX009 (ip), vehicle: other) is 89 % of control; the T/C (dose: 400.0 mg/kg/injection, schedule: Q01DX009 (ip), vehicle: other) was 86 % of control.

Regarding `CN(C)c1ccc(/C=N/NC(=O)c2ccccc2N)cc1`, the T/C is, setting by setting: (dose: 60.0 mg/kg/injection, schedule: Q01DX005 (ip), vehicle: saline with Tween-80) 103 % of control; (dose: 120.0 mg/kg/injection, schedule: Q01DX005 (ip), vehicle: saline with Tween-80) 100 % of control; (dose: 240.0 mg/kg/injection, schedule: Q01DX005 (ip), vehicle: saline with Tween-80) 98 % of control.

Turning to `COc1c(O)c2c(c3cc(C(=O)N4CCc5c4c(O)c(OC)c4[nH]c(C(=O)N6CC7CC78C6=CC(=O)c6[nH]cc(C)c68)cc54)[nH]c13)CCN2C(N)=O` (stereo not given), the T/C was 190 % of control (dose: 0.01 mg/kg/injection, schedule: Q04DX003 (ip), vehicle: other); 190 % of control and 211 % of control (dose: 0.03 mg/kg/injection, schedule: Q04DX003 (ip), vehicle: other); 150 % of control (dose: 0.04 mg/kg/injection, schedule: Q04DX003 (ip), vehicle: DMSO); 166 % of control (dose: 0.1 mg/kg/injection, schedule: Q04DX003 (ip), vehicle: DMSO); 118 % of control and 98 % of control (dose: 0.1 mg/kg/injection, schedule: Q04DX003 (ip), vehicle: other); 120 % of control (dose: 2.6 micrograms/kg/injection, schedule: Q01DX009 (ip), vehicle: other). The T/C by setting is: (dose: 4.0 micrograms/kg/injection, schedule: Q01DX009 (ip), vehicle: other) 119 % of control; (dose: 10.0 micrograms/kg/injection, schedule: Q04DX003 (ip), vehicle: other) 163 % of control; (dose: 13.0 micrograms/kg/injection, schedule: Q01DX009 (ip), vehicle: DMSO) 94 % of control; (dose: 13.0 micrograms/kg/injection, schedule: Q04DX003 (ip), vehicle: other) 124 % of control; (dose: 20.0 micrograms/kg/injection, schedule: Q04DX003 (ip), vehicle: other) 120 % of control; (dose: 21.6 micrograms/kg/injection, schedule: Q01DX009 (ip), vehicle: DMSO) 95 % of control. Further, the T/C by setting is: (dose: 30.0 micrograms/kg/injection, schedule: Q04DX003 (ip), vehicle: other) 181 % of control; (dose: 36.0 micrograms/kg/injection, schedule: Q01DX009 (ip), vehicle: DMSO) 98 % of control; (dose: 60.0 micrograms/kg/injection, schedule: Q01DX009 (ip), vehicle: DMSO) 93 % of control; (dose: 64.8 micrograms/kg/injection, schedule: Q04DX003 (ip), vehicle: DMSO) 153 % of control; (dose: 64.8 micrograms/kg/injection, schedule: Q04DX003 (ip), vehicle: saline) 156 % of control; (dose: 88.5 micrograms/kg/injection, schedule: Q01DX001 (ip), vehicle: other) 153 % of control. The T/C (dose: 100.0 micrograms/kg/injection, schedule: Q01DX009 (ip), vehicle: DMSO) was 95 % of control; the T/C (dose: 100.0 micrograms/kg/injection, schedule: Q04DX003 (ip), vehicle: other) was 93 % of control; the T/C (dose: 108.0 micrograms/kg/injection, schedule: Q04DX003 (ip), vehicle: DMSO) was 161 % of control; the T/C (dose: 133.0 micrograms/kg/injection, schedule: Q01DX001 (ip), vehicle: other) is 155 % of control; the T/C (dose: 180.0 micrograms/kg/injection, schedule: Q04DX003 (ip), vehicle: DMSO) is 170 % of control; the T/C (dose: 200.0 micrograms/kg/injection, schedule: Q01DX001 (ip), vehicle: other) is 162 % of control. The T/C is 105 % of control (dose: 300.0 micrograms/kg/injection, schedule: Q04DX003 (ip), vehicle: saline) and 157 % of control (dose: 450.0 micrograms/kg/injection, schedule: Q01DX001 (ip), vehicle: other).

With `CC(=O)[C-](I)C(C)=O.CC(=O)[C-](I)C(C)=O.CC(=O)[C-](I)C(C)=O.[Ru+3]`, the T/C is, setting by setting: (dose: 60.0 mg/kg/injection, schedule: Q01DX005 (ip), vehicle: Klucel (hydroxypropylcellulose) (HPC)) 106 % of control; (dose: 120.0 mg/kg/injection, schedule: Q01DX005 (ip), vehicle: Klucel (hydroxypropylcellulose) (HPC)) 106 % of control; (dose: 240.0 mg/kg/injection, schedule: Q01DX005 (ip), vehicle: Klucel (hydroxypropylcellulose) (HPC)) 115 % of control.

On to `C=C(Cn1cc(F)c(=O)n(CC(=C)C(=O)OCC)c1=O)C(=O)OCC`, for which the T/C (dose: 11.25 mg/kg/injection, schedule: Q04DX002 (ip), vehicle: distilled water + Tween-80) is 100 % of control; the T/C (dose: 22.5 mg/kg/injection, schedule: Q04DX002 (ip), vehicle: distilled water + Tween-80) is 93 % of control; the T/C (dose: 45.0 mg/kg/injection, schedule: Q04DX002 (ip), vehicle: distilled water + Tween-80) was 95 % of control; the T/C (dose: 90.0 mg/kg/injection, schedule: Q04DX002 (ip), vehicle: distilled water + Tween-80) was 90 % of control; the T/C (dose: 180.0 mg/kg/injection, schedule: Q04DX002 (ip), vehicle: distilled water + Tween-80) is 86 % of control.
